Results: US20190307820A1, “COMPOSITIONS AND METHODS OF USING STAT1/3 INHIBITORS WITH ONCOLYTIC HERPES VIRUS” (priority 2016, published 2019)
Read-outs that look alike come from different tables or passages of the source.

Experiments:
[1] = test system: G207 in U87 and MG co-culture; assay: G207 replication in glioma-microglia co-cultures treated with C16; type: cell-based, HSV-1; settings: 0.5 μM of C16
Method: FIG. 12B depicts an electrophoresis gel showing total proteins that were harvested from G2O7 infected microglia cells at 24 hours post treatment with either 1 μM of C16, 1 μM of Bay11, or 100 μM of AG. ICP27, ICP4, and […] expression was measured by western blot assay. U87 and MG co-culture were pretreated with 0.5 μM of C16 for 1 hour.
FIG. 12D is a bar graph showing G207 viral replication increasing by 33% in glioma-microglia co-cultures treated with C16.
U87 (5×104) alone or U87+microglia co-culture (5×104+5×104) or BV2 microglia cells (5×104) alone were seeded into a 24-well plate. After overnight incubation (to allow the cells to attach), cells were pretreated with indicated concentration of NFkB inhibitor, Bay-11 (Santa Cruz, Canada) or an indicated concentration of imidazolo-oxindole derivative C16 (Milipore, Canada) or vehicle for 1-2 hours. The cells were then infected with oHSV-1 (G207 or HrR3) virus at a MOI of 1 in presence of chemical inhibitors for another 2 days. The viruses were harvested and titrated in vero cells by plaque forming assay in 12-well plates by triplicates.
The effects of a PKR inhibitor (C16), a NFkappaB inhibitor (Bay11), and an iNOS inhibitor (aminoguanidine hydrochloride) were tested on G207 replication in BV2 cells (Example 15). […]

BTUC cells = assay: MTT cytotoxicity assay, BTUC cells; type: cell-based; settings: 72 hours, read-out: Inhibitory concentration 50% (IC50)
Method: (§1) FIGS. 1A-1B are graphs that show an anti-tumor effect of nifuroxazide. (FIG. 1A) Cells were treated with indicated concentration of nifuroxazide for 72 hours. Cytotoxicity was measured by using MTT assay. (FIG. 1B) Subcutaneously U87 tumor bearing mice were peritoneally injected with indicated doses of nifuroxazide. Tumor size was measured using calipers at day 7 post nifuroxazide treatment.
(§2) In this example, the antitumor effect of nifuroxazide is evaluated in different tumor cells. Cells were treated with nifuroxazide for 72 hours (FIG. 1A). […] To verify the anti-tumor efficacy of nifuroxazide in vivo, animals with subcutaneous U87 tumor implants were injected in the peritoneum with vehicle, 1 mg/kg nifuroxazide and 50 mg/kg nifuroxazide. […] Tumor volume was reduced around 25% and 60% after 7 days treatment with 1 mg/kg nifuroxazide and 50 mg/kg nifuroxazide respectively (FIG. 1B).
(§3) Cells were seeded in a 96-well plate at a density of 1×104 (U87). After overnight incubation, cells were treated with only vehicle or indicated MOI of virus or indicated concentration of drugs or reagents. After 2 to 3 days of treatment cell viability was measured by MTT assay (Sigma, Canada) according to the manufacturer's instruction. […] After overnight incubation with lysis buffer, cell viability was measured at 595 nm using a plate reader (Envision 2103 Multilabel reader, Perkin Elmer).

LnCap cells = assay: MTT cytotoxicity assay, LnCap cells; type: cell-based; settings: Homo sapiens, 72 hours, read-out: Inhibitory concentration 50% (IC50)
Method: as §1, §2, §3

ICP27 mRNA = assay: RT-qPCR of ICP27 mRNA in HrR3 infected U87 cells; type: cell-based, HSV-1; settings: HrR3 MOI-5, 6 hours
Method: (§4) FIGS. 4A-4C show the effect of nifuroxazide on HSV-1 gene expression. (FIG. 4A) U87 cells were treated with HrR3 viruses at a MOI-3 and indicated doses of nifuroxazide. 24 hours post infected, total protein was extracted and subjected to western blot analysis. (FIG. 4B) U87 cells were treated with HrR3 at a MOI-5 and indicated concentration of nifuroxazide for 6 hours. ICP27 mRNA level was detected by RT-qPCR. (FIG. 4C) Relative mRNA level (2^−ΔΔCT) is shown. Data are presented as mean SD, *P<0.05 vs corresponding vehicle treatment.
(§5) In this example, the underlying mechanism of nifuroxazide mediated oHSV-1 replication enhancement was examined. The effect of nifuroxazide on viral immediate early gene, ICP27 and ICP4 expression was established by Western blot analysis.

HrR3 in U87 glioma cells = assay: PCR viral titer (ICP27 qPCR) of HrR3 in U87 glioma cells; type: cell-based, HSV-1; settings: HrR3 MOI of 1, 48 hours
Method: FIGS. 2A-2B contain charts that show the effect of nifuroxazide on replication of oHSV-1. (FIG. 2A) Indicated cells were infected with HrR3 viruses at MOI-0.1. Viruses were harvested at 48 hours post-infected and titrated in vero cells. Data are presented as mean SD, *P<0.05 vs corresponding vehicle treatment. (FIG. 2B) U87 or glio cells were treated with HrR3 at a MOI of 1 and indicated concentration of nifuroxazide for 48 hours. Total DNA was extracted and subjected to qPCR to detect HSV-1 using ICP27 primer. nifuroxazide mediated oHSV-1% increase was represented in the figure.
In this example, the effect of nifuroxazide on oHSV-1 anti-tumor efficacy was evaluated. oHSV-1 infected treated glioma cells were incubated with low concentration of nifuroxazide. Replication increased 27- and 40-fold with 0.5 μM nifuroxazide and 10 μM nifuroxazide treated U87 cells respectively. Similarly, virus replication increased 0.8- and 4.7-fold virus in 9L cells treated with 0.5 μM nifuroxazide and 10 μM nifuroxazide respectively (FIG. 2A).

ICP4 = assay: Western blot of ICP4 in HrR3 infected U87 cells; type: cell-based, HSV-1; settings: 0.5 μM, 1 μM and 10 μM nifuroxazide, HrR3 MOI-3, 24 hours
Method: as §4, §5

U87 cells = assay: MTT cytotoxicity assay, U87 cells; type: cell-based; settings: Homo sapiens, U-87 MG
Method: (FIG. 5A) U87 cells were treated with HrR3 at a MOI of 5 and indicated concentration of nifuroxazide for 6 hours. Extracted protein was then subjected to western blot assay. (FIG. 5B) U87 cells were treated with indicated concentration of HrR3 or nifuroxazide or stattic or in combination for 72 hours. Cytotoxicity was measured by MTT assay. (FIG. 5C) Relative mRNA level (2^−ΔΔCT) is shown. Data are presented as mean SD, *P<0.05 vs corresponding vehicle treatment.
Expression of key regulator of the Type1 interferon signaling, STAT1 and STAT3, was determined in nifuroxazide treated oHSV-1 infected U87 cells.

Compound | G207 viral replication increased [1] [%] | IC50 (BTUC cells) [µM] | IC50 (LnCap cells) [µM] | ICP27 mRNA expression (ICP27 mRNA) | PCR viral titer (HrR3 in U87 glioma cells) | ICP4 expression (ICP4) | IC50 (U87 cells; in combination with MOI of 1 HrR3, 72 hours, read-out: IC50, nifuroxazide dose in combination) [µM] | IC50 (U87 cells; individual dose, 72 hours, MTT assay, read-out: Inhibitory concentration 50% (IC50)) [µM]
O=C1Nc2ccc3ncsc3c2/C1=C/c1c[nH]cn1 [C16, 6,8-Dihydro-8-(1H-imidazol-5-ylmethylene)-7H-pyrrolo[2,3-g]benzothiazol-7-one] | 33 |  |  |  |  |  |  | 
O=C(N/N=C/c1ccc([N+](=O)[O-])o1)c1ccc(O)cc1 [nifuroxazide, Benzoic acid, 4-hydroxy-, [(5-nitro-2-furanyl)metylene]hydrazide] |  | ~15 | ~5 | up-regulation of ICP27 mRNA expression | dose dependent HrR3 replication enhancement | not ICP4 expression | ~4 | ~20
